Molecular target: T1, GCase (Homo sapiens, UniProt P04062)
T1 construct: endogenous in cells; host or cells: HeLa cells
T1 sequence (P04062 40-536): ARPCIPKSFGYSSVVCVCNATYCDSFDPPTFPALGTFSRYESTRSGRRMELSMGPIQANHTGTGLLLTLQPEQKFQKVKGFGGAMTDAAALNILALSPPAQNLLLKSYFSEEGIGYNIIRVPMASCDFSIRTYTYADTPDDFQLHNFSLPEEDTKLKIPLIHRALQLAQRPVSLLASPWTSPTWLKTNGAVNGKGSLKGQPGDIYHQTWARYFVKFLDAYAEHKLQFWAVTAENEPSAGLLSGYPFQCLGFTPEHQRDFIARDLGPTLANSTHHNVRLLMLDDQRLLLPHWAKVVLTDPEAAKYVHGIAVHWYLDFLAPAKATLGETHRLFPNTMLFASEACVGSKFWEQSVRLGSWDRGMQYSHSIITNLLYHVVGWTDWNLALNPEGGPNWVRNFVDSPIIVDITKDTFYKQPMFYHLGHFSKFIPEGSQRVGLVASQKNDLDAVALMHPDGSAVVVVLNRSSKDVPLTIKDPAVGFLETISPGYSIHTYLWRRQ
Test: activation of GCase in a live cell PFB assay in HELA cells
Format: cell-based
Conditions: EC50 given as range classes
Method: Exemplary compounds were evaluated for activation of GCase in a live cell PFB assay in HELA cells (essentially as described in Ysselstein et al., “LRRK2 kinase activity regulates lysosomal glucocerebrosidase in neurons derived from Parkinson's disease patients” Nature Communications (2019) 10:5570). […] EC50 ranges: A: <10 μM; B: >10-50 μM; C: >50-100 μM; D: >100 μM.

SMILES	EC50 [µM]
O=C(c1cccc(OC(F)(F)F)c1)N1CC2(CCN(c3cnc4cnn(CC(F)F)c4n3)C2)C1 [Cmpd 388]	10 to 50
Cc1nn(CC(F)F)c2nc(N3CC4(CC3=O)CN(c3ccnc(C(F)(F)F)c3)C4)ncc12 [Cmpd 1006]	10 to 50
O=C1CC2(CCN(c3cnc4cnn(CC(F)F)c4n3)CC2)CN1Cc1ccc(F)cn1 [Cmpd 397]	10 to 50
Cc1nc(N2CCC3(CC2)CCN(c2ncc4cnn(CC(F)F)c4n2)C3)cc(C(F)(F)F)n1 [Cmpd 581]	10 to 50
FC(F)Cn1ncc2ncc(N3CCC4(CCN(c5cncc(C(F)(F)F)c5)CC4)CC3)nc21 [Cmpd 808]	10 to 50
Cc1nn(CC(F)F)c2nc(N3CCC4(CCN(c5cc(C(F)(F)F)ccn5)C4)CC3)cnc12 [Compound 178, 8-[1-(2,2-difluoroethyl)-3-methyl-1H-pyrazolo[3,4-b]pyrazin-6-yl]-2-[4-(trifluoromethyl)pyridin-2-yl]-2,8-diazaspiro[4.5]decane]	10 to 50
FC(F)Cn1ncc2ncc(N3CC4(CCN(c5cccc(C(F)(F)F)n5)C4)C3)nc21 [Compound 185, 2-[1-(2,2-difluoroethyl)-1H-pyrazolo[3,4-b]pyrazin-6-yl]-6-[6-(trifluoromethyl)pyridin-2-yl]-2,6-diazaspiro[3.4]octane]	> 100
FC(F)(F)c1ncc(N2CCC3(CCN(c4cncc(-c5nncs5)n4)CC3)C2)cn1 [Cmpd 823]	10 to 50
Cc1nc(C(F)(F)F)cnc1N1CCC2(CCN(c3cnc4cnn(CC(F)F)c4n3)CC2)C1 [Cmpd 786]	< 10
O=C1CC2(CCN(c3cnc4cnn(CC(F)F)c4n3)CC2)CN1Cc1ccc(Cl)cn1 [Cmpd 400]	10 to 50
COc1nc(C(F)(F)F)ncc1N1CCC2(CCN(c3cnc4cnn(CC(F)F)c4n3)CC2)C1 [Cmpd 787]	< 10
COc1ccccc1C(=O)N1CC2(CCN(c3cnc4cnn(CC(F)F)c4n3)C2)C1 [Cmpd 391]	< 10
FC(F)Cn1ncc2ncc(N3CCC4(CC3)CC(Nc3cncc(C(F)(F)F)c3)C4)nc21 [Cmpd 228]	> 100
Cc1ncc(N2CC3(CCN(c4cnc5cnn(CC(F)F)c5n4)C3)C2)c(C(F)(F)F)n1 [Cmpd 592]	> 100
FC(F)Cn1ncc2ncc(N3CCC4(CCN(c5cnc(C(F)(F)F)cn5)CC4)CC3)nc21 [Cmpd 814]	< 10
O=C1N(c2cnc3cnn(CC(F)F)c3n2)CCC12CC1CCC(C2)N1c1ccc(C(F)(F)F)nc1 (stereo not shown) [Cmpd 803]	< 10

Same assay, conditions: activation of GCase, EC50 ranges

SMILES	EC50 [µM]
CCN1C(=O)N(c2ccc(C(F)(F)F)nc2)C(=O)C12CCN(c1cnc3cnn(CC(F)F)c3n1)CC2 [Cmpd 849]	< 10
O=C1CC2(CCN(c3cnc4cnn(CC(F)F)c4n3)CC2)CN1Cc1cncc(Cl)c1 [Cmpd 336]	10 to 50
O=C1N(c2cnc3cnn(CC(F)F)c3n2)CCC12CCN(c1ccc(C(F)(F)F)cn1)CC2 [Compound 121, 2-[1-(2,2-difluoroethyl)-1H-pyrazolo[3,4-b]pyrazin-6-yl]-8-[5-(trifluoromethyl)pyridin-2-yl]-2,8-diazaspiro[4.5]decan-1-one]	< 10
Cc1nc(N2CCC3(CCN(c4cnc5cnn(CC(F)(F)F)c5n4)C3)C2)cc(C(F)(F)F)n1 (stereo not shown) [Cmpd 538]	10 to 50
Cc1cc(CN2CC3(CCN(c4cnc5cnn(CC(F)F)c5n4)CC3)CC2=O)on1 [Cmpd 972]	10 to 50
O=C1N(c2ccnc(C(F)(F)F)n2)CCC12CCN(c1cnc3cnn(CC(F)F)c3n1)CC2 [Cmpd 896]	< 10
O=C1CC2(CCN(c3cnc4cnn(CC(F)F)c4n3)CC2)CN1Cc1ccc(OC(F)F)cc1 [Cmpd 442]	< 10
FC(F)Cn1ncc2ncc(N3CCC4(CC3)CC(COc3ncccc3C(F)(F)F)C4)nc21 [Cmpd 700]	< 10
FC(F)Cn1ncc2ncc(N3CCC4(CCN(c5ccc(C(F)(F)F)nn5)C4)CC3)nc21 [Cmpd 732]	10 to 50
O=C1N(Cc2ccnc(C(F)(F)F)n2)CCC12CCN(c1cnc3cnn(CC(F)F)c3n1)CC2 [Cmpd 844]	< 10
Cc1nn(CC(F)F)c2nc(N3CCC4(CCN(c5ccnc(C(F)(F)F)c5)C4)C3)ncc12 (stereo not shown) [Cmpd 486]	50 to 100
Cc1ncc(C(F)(F)F)nc1N1CCC2(CCN(c3cnc4cnn(CC(F)F)c4n3)CC2)C1 [Cmpd 765]	< 10
O=C1CC2(CCN(c3cnc4cnn(CC(F)F)c4n3)CC2)CN1Cc1ccnc(OC(F)F)c1 [Cmpd 919]	< 10
Cc1nn(C2COC2)c2nc(N3CC4(CCN(c5ccnc(C(F)(F)F)c5)C4)C3)cnc12 [Cmpd 345]	< 10
Cc1nn(CC(F)F)c2nc(N3CCC4(CCN(c5ccnc(C(F)(F)F)c5)C4=O)C3)cnc12 (stereo not shown) [Cmpd 514]	< 10
O=C1CC2(CCN(c3cnc4cnn(CC(F)F)c4n3)CC2)CN1c1ccc(C(F)(F)F)cc1F [Cmpd 729]	< 10
FC(F)Cn1ncc2ncc(N3CCC4(CC3)CC(COc3ccnc(C(F)(F)F)c3)C4)nc21 [Cmpd 695]	< 10
COc1nn(CC(F)F)c2nc(N3CCC4(CC3)CC(=O)N(c3ccc(C(F)(F)F)nc3)C4)cnc12 [Cmpd 837]	< 10
Cc1nc(N2CCC3(CCN(c4cnc5cnn(C6COC6)c5n4)CC3)C2)cc(C(F)(F)F)n1 [Cmpd 574]	10 to 50
FC(F)Cn1ncc2ncc(N3CCC4(CCN(c5cccc(C(F)(F)F)n5)CC4)C3)nc21 [Compound 149, 2-[1-(2,2-difluoroethyl)-1H-pyrazolo[3,4-b]pyrazin-6-yl]-8-[6-(trifluoromethyl)pyridin-2-yl]-2,8-diazaspiro[4.5]decane]	< 10
O=C1CC2(CCN(c3cnc4cnn(CC(F)F)c4n3)CC2)CN1Cc1ccc(C(F)(F)F)cc1F [Cmpd 446]	< 10

SMILES	EC50 [µM]
Cc1nc(N2CC3(CCN(c4cnc5cnn(CC(F)F)c5n4)C3)CC2=O)cc(C(F)(F)F)n1 (stereo not shown) [Cmpd 510]	> 100
FC(F)Cn1ncc2ncc(N3CCC4(CC3)CCN(c3cccnc3C(F)(F)F)C4)nc21 [Compound 146, 8-[1-(2,2-difluoroethyl)-1H-pyrazolo[3,4-b]pyrazin-6-yl]-2-[2-(trifluoromethyl)pyridin-3-yl]-2,8-diazaspiro[4.5]decane]	< 10
O=C(c1cnc(C(F)(F)F)nc1)N1CC2(CCN(c3cnc4cnn(CC(F)F)c4n3)CC2)C1 [Cmpd 326]	10 to 50
CCc1cnc(CN2CC3(CCN(c4cnc5cnn(CC(F)F)c5n4)CC3)CC2=O)s1 [Cmpd 976]	< 10
FC(F)Cn1ncc2ncc(N3CCCC4(C3)CN(c3ncccc3C(F)(F)F)C4)nc21 [Compound 18, 6-[1-(2,2-difluoroethyl)-1H-pyrazolo[3,4-b]pyrazin-6-yl]-2-[3-(trifluoromethyl)pyridine-2-yl]-2,6-diazaspiro[3.5]nonane]	10 to 50
FC(F)Cn1ncc2ncc(N3CCCC4(CC(Oc5ccc(C(F)(F)F)nc5)C4)C3)nc21 (stereo not shown) [Compound 22, 6-[1-(2,2-difluoroethyl)-1H-pyrazolo[3,4-b]pyrazin-6-yl]-2-{[6-(trifluoromethyl)pyridin-3-yl]oxy}-6-azaspiro[3.5]nonane]	10 to 50
FC(F)Cn1ncc2ncc(N3CCC4(CCN(c5cccnc5C(F)(F)F)CC4)C3)nc21 [Compound 170, 2-[1-(2,2-difluoroethyl)-1H-pyrazolo[3,4-b]pyrazin-6-yl]-8-[2-(trifluoromethyl)pyridin-3-yl]-2,8-diazaspiro[4.5]decane]	10 to 50
Cc1nc(N2CCC3(CCN(c4cnc5cnn(CC(F)F)c5n4)CC3)C2=O)cc(C(F)(F)F)n1 [Cmpd 512]	< 10
CC1CC2(CCN1c1cnc3cnn(CC(F)F)c3n1)CC(=O)N(c1cc(C(F)(F)F)ccn1)C2 (stereo not shown) [Cmpd 726]	10 to 50
Cc1ccc(N2CCC3(CCN(c4cnc5cnn(CC(F)F)c5n4)CC3)C2)nn1 [Cmpd 757]	< 10
Cc1sc(N2CC3(CCN(c4cnc5cnn(CC(F)F)c5n4)C3)C2)nc1C(F)(F)F [Cmpd 1047]	> 100
Cc1nn(C2COC2)c2nc(N3CCC4(CCN(c5ccc(C(F)(F)F)nc5)C4)CC3)ncc12 [Cmpd 887]	10 to 50
CC1CC2(CCN(c3cc(C(F)(F)F)ccn3)C2)CCN1c1cnc2cnn(CC(F)F)c2n1 (stereo not shown) [Cmpd 745]	< 10
O=C1N(c2ccnc(C(F)(F)F)c2)CCC12CCN(c1cnc3cnn(CC(F)F)c3n1)CC2 [Cmpd 676]	< 10
CC1(C)CC2(CCN(c3cnc4cnn(CC(F)F)c4n3)CC2)C(=O)N1c1cc(C(F)(F)F)ccn1 [Cmpd 661]	10 to 50
Cc1nc(N2CC3(CCN(c4cnc5cnn(C6COC6)c5n4)CC3)CC2=O)cc(C(F)(F)F)n1 [Cmpd 457]	10 to 50
Cn1c(N2CCC3(CC2)CC(=O)N(c2ccc(C(F)(F)F)nc2)C3)nc2c(cnn2CC(F)F)c1=O [Cmpd 925]	10 to 50
O=C1CC2(CCN(c3cnc4cnn(CC(F)F)c4n3)CC2)CN1Cc1ccnc(C(F)(F)F)n1 [Cmpd 915]	< 10
COc1cc(N2CC3(CCN(c4cnc5cnn(CC(F)F)c5n4)C3)C2)ccn1 [Cmpd 929]	10 to 50
O=C1CC2(CCN(c3cccc(C(F)(F)F)n3)CC2)CN1c1cnc2cnn(CC(F)F)c2n1 [Compound 100, 2-[1-(2,2-difluoroethyl)-1H-pyrazolo[3,4-b]pyrazin-6-yl]-8-[6-(trifluoromethyl)pyridin-2-yl]-2,8-diazaspiro[4.5]decan-3-one]	10 to 50
Cc1nn(C2COC2)c2nc(N3CCC4(CC3)CN(c3cc(C(F)(F)F)ccn3)C4)ncc12 [Cmpd 479]	> 100

Source: patent publication US20250034170A1, “SMALL MOLECULE MODULATORS OF GLUCOCEREBROSIDASE ACTIVITY AND USES THEREOF” (Vanqua Bio, Inc., priority 2021, published 2025)
